Measurements taken from patent US20260137706A1, “METHODS OF TREATING INFLAMMATORY DISEASES” (INTERLINE THERAPEUTICS, INC., priority 2023, published 2026).
pIC50: −log10 of the molar value.

Columns and labels:
[1] = target: T1, binding of His-XIAP(BIR2)-avi fusion protein to GST-RIPK2 fusion protein (RIPK2/XIAP) (Homo sapiens, UniProt O43353); experiment: RIPK2-XIAP binding competition PPI assay (TR-FRET); conditions: RIPK2/XIAP binding competition PPI assay; for Emax: Amax, read-out: PPI Amax bin; for pIC50: read-out: PPI IC50 bin
T1 construct: made in house; host or cells: baculovirus infected Sf9 cells
T1 sequence (O43353 1-310 limits assumed): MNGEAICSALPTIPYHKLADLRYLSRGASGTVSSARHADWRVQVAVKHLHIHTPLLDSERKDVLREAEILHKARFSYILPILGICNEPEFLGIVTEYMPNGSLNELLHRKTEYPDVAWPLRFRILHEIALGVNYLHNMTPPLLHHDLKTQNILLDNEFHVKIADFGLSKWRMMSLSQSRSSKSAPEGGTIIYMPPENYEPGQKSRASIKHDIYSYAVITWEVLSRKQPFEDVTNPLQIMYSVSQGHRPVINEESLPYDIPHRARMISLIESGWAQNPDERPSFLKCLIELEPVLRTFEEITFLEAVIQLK
Method in brief: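 Compounds (in DMSO, 100-fold stock) incubated 120 min at 23 °C with 1 nM GST-RIPK2 (aa 1-310) and 25 nM His-XIAP(BIR2 aa 152-231)-avi, plus anti-His-XL665 and anti-GST-Tb, in pH 7.5 Tris buffer. Read-out: 665/520 nm emission ratio. Normalized to no-inhibitor (0%) and 50 nM GSK583 (−100%); Amax binned A–D.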

[2] = tested on: NF-κB pathway (SEAP) in THP1-Dual cells; experiment: THP-1 Dual cell SEAP assay (L18-MDP stimulated); type: cell-based; conditions: Homo sapiens, THP1-Dual, read-out: NF-κB THP1 IC50 bin
Method in brief: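 THP1-Dual cells (~25,000/well) were preincubated 30 min with serially diluted compounds, then stimulated with 10 ng/mL L18-MDP (final) for 20-24 h at 37 °C. Supernatant SEAP was read with QUANTI-Blue at OD 620-655 nm after 2 h. IC50 came from non-linear fits of % inhibition versus DMSO/L18-MDP controls after media-blank subtraction.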

[3] = target: T2, GST-RIPK2 fusion protein (human RIPK2, amino acids 1-310) (Homo sapiens, UniProt O43353); experiment: RIPK2 binding competition assay (TR-FRET, Tracer 199 displacement); conditions: 10 nM Tracer 199, 1 nM GST-RIPK2, read-out: RIPK2 IC50
T2 construct: made in house; host or cells: baculovirus infected Sf9 cells
T2 sequence (O43353 1-310): as the sequence (O43353 1-310 limits assumed) above
Method in brief: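 GST-RIPK2 (human aa 1-310, Sf9-expressed; final 1 nM) with Tracer 199 (final 10 nM) and Tb-anti-GST (final 0.5 nM) in Tris pH 7.5 buffer, 45 min at 22 °C. TR-FRET 665/620 nm ratio after 337 nm excitation; normalized to no-inhibitor (0%) and no-protein (−100%), giving IC50.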

COc1cc2ncc(-c3ccc4c(N)nn(C)c4c3)n2cc1S(=O)(=O)C(C)(C)C [Example 102, 6-(6-(tert-butylsulfonyl)-7-methoxyimidazo[1,2-a]pyridin-3-yl)-1-methyl-1H-indazol-3-amine]
Emax [1]: < 30% | pIC50 [1]: < 7.70 | pIC50 [2]: < 6.00 | pIC50 [3]: < 7.70

COc1cc2ncc(-c3ccc4c(N)n[nH]c4c3)n2cc1S(=O)(=O)C(C)(C)C [Example 103, 6-(6-(tert-butylsulfonyl)-7-methoxyimidazo[1,2-a]pyridin-3-yl)-1H-indazol-3-amine]
Emax [1]: < 30% | pIC50 [1]: < 7.70 | pIC50 [2]: < 6.00 | pIC50 [3]: < 7.70

COc1cc2ncc(-c3ccc4oc(N)nc4c3)n2cc1S(=O)(=O)C(C)(C)C [Example 104, 5-(6-(tert-butylsulfonyl)-7-methoxyimidazo[1,2-a]pyridin-3-yl)benzo[d]oxazol-2-amine]
Emax [1]: 30 to 55% | pIC50 [1]: < 7.70 | pIC50 [2]: < 6.00 | pIC50 [3]: < 7.70

COc1cc2ncc(-c3ccc4sc(N)nc4c3)n2cc1S(=O)(=O)C(C)(C)C [Example 105, 5-(6-(tert-butylsulfonyl)-7-methoxyimidazo[1,2-a]pyridin-3-yl)benzo[d]thiazol-2-amine]
Emax [1]: 30 to 55% | pIC50 [1]: < 7.70 | pIC50 [2]: < 6.00 | pIC50 [3]: < 7.70

COc1cc2ncc(-c3ccc4cnn(C)c4c3)n2cc1S(=O)(=O)C(C)(C)C [Example 106, 6-(6-(tert-butylsulfonyl)-7-methoxyimidazo[1,2-a]pyridin-3-yl)-1-methyl-1H-indazole]
Emax [1]: < 30% | pIC50 [1]: < 7.70 | pIC50 [2]: < 6.00 | pIC50 [3]: < 7.70

COc1cc2ncc(-c3cnn4c(C)c(C)ccc34)n2cc1S(=O)(=O)C(C)(C)C [Example 107, 6-(tert-butylsulfonyl)-3-(6,7-dimethylpyrazolo[1,5-a]pyridin-3-yl)-7-methoxyimidazo[1,2-a]pyridine]
Emax [1]: 55 to 80% | pIC50 [1]: < 7.70 | pIC50 [2]: < 6.00 | pIC50 [3]: < 7.70

COc1cc2ncc(-c3ccc4c(C)nn(C)c4c3)n2cc1S(=O)(=O)C(C)(C)C [Example 108, 6-(6-(tert-butylsulfonyl)-7-methoxyimidazo[1,2-a]pyridin-3-yl)-1,3-dimethyl-1H-indazole]
Emax [1]: < 30% | pIC50 [1]: < 7.70 | pIC50 [2]: < 6.00 | pIC50 [3]: < 7.70

COc1cc2ncc(-c3cc(F)c4nc(C)cn4c3)n2cc1S(=O)(=O)C(C)(C)C [Example 109, 6-(tert-butylsulfonyl)-8′-fluoro-7-methoxy-2′-methyl-3,6′-biimidazo[1,2-a]pyridine]
Emax [1]: < 30% | pIC50 [1]: < 7.70 | pIC50 [2]: < 6.00 | pIC50 [3]: < 7.70

COc1cc2ncc(-c3ccc4ncoc4c3)n2cc1S(=O)(=O)C(C)(C)C [Example 110, 6-(6-(tert-butylsulfonyl)-7-methoxyimidazo[1,2-a]pyridin-3-yl)benzo[d]oxazole]
Emax [1]: < 30% | pIC50 [1]: < 7.70 | pIC50 [2]: < 6.00 | pIC50 [3]: < 7.70

COc1cc2ncc(-c3ccc4nn(C)cc4c3)n2cc1S(=O)(=O)C(C)(C)C [Example 111, 5-(6-(tert-butylsulfonyl)-7-methoxyimidazo[1,2-a]pyridin-3-yl)-2-methyl-2H-indazole]
Emax [1]: < 30% | pIC50 [1]: < 7.70 | pIC50 [2]: < 6.00 | pIC50 [3]: < 7.70

COc1cc2ncc(-c3cnn4ccccc34)n2cc1S(=O)(=O)C(C)(C)C [Example 112, 6-(tert-butylsulfonyl)-7-methoxy-3-(pyrazolo[1,5-a]pyridin-3-yl)imidazo[1,2-a]pyridine]
Emax [1]: < 30% | pIC50 [1]: < 7.70 | pIC50 [2]: < 6.00 | pIC50 [3]: < 7.70

COc1cc2ncc(-c3ccc4cncn4c3)n2cc1S(=O)(=O)C(C)(C)C [Example 113, 6-(tert-butylsulfonyl)-3-(imidazo[1,5-a]pyridin-6-yl)-7-methoxyimidazo[1,2-a]pyridine]
Emax [1]: < 30% | pIC50 [1]: < 7.70 | pIC50 [2]: < 6.00 | pIC50 [3]: < 7.70

COc1cc2ncc(-c3cnn4ncccc34)n2cc1S(=O)(=O)C(C)(C)C [Example 114, 3-(6-(tert-butylsulfonyl)-7-methoxyimidazo[1,2-a]pyridin-3-yl)pyrazolo[1,5-b]pyridazine]
Emax [1]: < 30% | pIC50 [1]: < 7.70 | pIC50 [2]: < 6.00 | pIC50 [3]: < 7.70

COc1cc2ncc(-c3ccc4c(c3)nc(N)n4C)n2cc1S(=O)(=O)C(C)(C)C [Example 115, 5-(6-(tert-butylsulfonyl)-7-methoxyimidazo[1,2-a]pyridin-3-yl)-1-methyl-1H-benzo[d]imidazol-2-amine]
Emax [1]: 55 to 80% | pIC50 [1]: < 7.70 | pIC50 [2]: < 6.00 | pIC50 [3]: < 7.70

COc1cn2ncc(-c3cc(F)c(N)nc3F)c2nc1N1C(=O)OCC1(C)C [Example 116, 3-(3-(6-amino-2,5-difluoropyridin-3-yl)-6-methoxypyrazolo[1,5-a]pyrimidin-5-yl)-4,4-dimethyloxazolidin-2-one]
Emax [1]: 55 to 80% | pIC50 [1]: < 7.70 | pIC50 [2]: < 6.00 | pIC50 [3]: < 7.70

COc1cc2ncc(-c3cc(F)c(OC)c4[nH]cnc34)n2cc1S(=O)(=O)C(C)(C)C [Example 117, 4-(6-(tert-butylsulfonyl)-7-methoxyimidazo[1,2-a]pyridin-3-yl)-6-fluoro-7-methoxy-1H-benzo[d]imidazole]
Emax [1]: 30 to 55% | pIC50 [1]: 7.70 to 8.60 | pIC50 [2]: 6.00 to 6.60 | pIC50 [3]: 7.70 to 8.60

COc1cc2ncc(-c3cc(F)c(OC)c4[nH]c(C)nc34)n2cc1S(=O)(=O)C(C)(C)C [Example 118, 4-(6-(tert-butylsulfonyl)-7-methoxyimidazo[1,2-a]pyridin-3-yl)-6-fluoro-7-methoxy-2-methyl-1H-benzo[d]imidazole]
Emax [1]: 55 to 80% | pIC50 [1]: > 9.00 | pIC50 [2]: 6.60 to 7.30 | pIC50 [3]: 8.60 to 9.00

COc1cc2ncc(-c3cc(F)c(OC)c4[nH]c(CO)nc34)n2cc1S(=O)(=O)C(C)(C)C [Example 119, (4-(6-(tert-butylsulfonyl)-7-methoxyimidazo[1,2-a]pyridin-3-yl)-6-fluoro-7-methoxy-1H-benzo[d]imidazol-2-yl)methanol]
Emax [1]: 55 to 80% | pIC50 [1]: > 9.00 | pIC50 [2]: > 7.30 | pIC50 [3]: > 9.00

COc1cc2ncc(-c3cc(F)c(OC)c4[nH]ncc34)n2cc1S(=O)(=O)C(C)(C)C [Example 120, 4-(6-(tert-butylsulfonyl)-7-methoxyimidazo[1,2-a]pyridin-3-yl)-6-fluoro-7-methoxy-1H-indazole]
Emax [1]: 55 to 80% | pIC50 [1]: 7.70 to 8.60 | pIC50 [2]: < 6.00 | pIC50 [3]: 7.70 to 8.60

COc1cc2ncc(-c3cc(F)c(OC)c4c3cnn4CCO)n2cc1S(=O)(=O)C(C)(C)C [Example 121, 2-(4-(6-(tert-butylsulfonyl)-7-methoxyimidazo[1,2-a]pyridin-3-yl)-6-fluoro-7-methoxy-1H-indazol-1-yl)ethan-1-ol]
Emax [1]: 55 to 80% | pIC50 [1]: < 7.70 | pIC50 [2]: < 6.00 | pIC50 [3]: < 7.70

COc1cc2ncc(-c3cc(F)c(OC)c4nn(CCO)cc34)n2cc1S(=O)(=O)C(C)(C)C [Example 122, 2-(4-(6-(tert-butylsulfonyl)-7-methoxyimidazo[1,2-a]pyridin-3-yl)-6-fluoro-7-methoxy-2HI-indazol-2-yl)ethan-1-ol]
Emax [1]: < 30% | pIC50 [1]: < 7.70 | pIC50 [2]: < 6.00 | pIC50 [3]: < 7.70

COc1cc2ncc(-c3cnc4c(c3)OCCN4C)n2cc1S(=O)(=O)C(C)(C)C [Example 123, 7-(6-(tert-butylsulfonyl)-7-methoxyimidazo[1,2-a]pyridin-3-yl)-4-methyl-3,4-dihydro-2H-pyrido[3,2-b][1,4]oxazine]
Emax [1]: 30 to 55% | pIC50 [1]: < 7.70 | pIC50 [2]: < 6.00 | pIC50 [3]: < 7.70

COc1cc2ncc(-c3cc(F)c(N)nc3F)n2cc1S(=O)(=O)C1(C)CCN(C2COC2)CC1 [Example 124, 3,6-difluoro-5-(7-methoxy-6-((4-methyl-1-(oxetan-3-yl)piperidin-4-yl)sulfonyl)imidazo[1,2-a]pyridin-3-yl)pyridin-2-amine]
Emax [1]: > 80% | pIC50 [1]: < 7.70 | pIC50 [2]: < 6.00 | pIC50 [3]: 7.70 to 8.60

COCCN1CCC(C)(S(=O)(=O)c2cn3c(-c4cc(F)c(N)nc4F)cnc3cc2OC)CC1 [Example 125, 3,6-difluoro-5-(7-methoxy-6-((1-(2-methoxyethyl)-4-methylpiperidin-4-yl)sulfonyl)imidazo[1,2-a]pyridin-3-yl)pyridin-2-amine]
Emax [1]: > 80% | pIC50 [1]: 7.70 to 8.60 | pIC50 [2]: 6.00 to 6.60 | pIC50 [3]: 7.70 to 8.60

CCCS(=O)(=O)Nc1cc(-c2cnc3cc(OC)c(S(=O)(=O)C(C)(C)CO)cn23)cc(F)c1OC [Example 126, N-(3-fluoro-5-(6-((1-hydroxy-2-methylpropan-2-yl)sulfonyl)-7-methoxyimidazo[1,2-a]pyridin-3-yl)-2-methoxyphenyl)propane-1-sulfonamide]
Emax [1]: > 80% | pIC50 [1]: > 9.00 | pIC50 [2]: > 7.30 | pIC50 [3]: > 9.00
